Laboratory results as given in patent publication US20240033234A1, “THERAPEUTIC COMPOUNDS, FORMULATIONS, AND USE THEREOF” (Tvardi Therapeutics, Inc., priority 2022, published 2024).
Several values for one entry are separate records, joined by “and”; a condition that tells them apart may be missing. Equal values may be shown once.

Assay: 3-Month stability data for TTI-101 Batches B, C, D and E stored at 40° C./75% RH
Format: physicochemical
Experimental: Exemplary HPLC conditions: diluent was 0.1% trifluoroacetic acid (TFA) in acetonitrile, Mobile Phase A was 0.05% TFA in water, and Mobile Phase B was 0.05% TFA in acetonitrile, column (Agilent, Eclipse XDB-C18, 3.0×100 mm, particle size 1.8 μm), flow (0.425 mL/min), and detector (280 nm diode array).
Batches B, C, and D were prepared according to Method 5, Method 4, and Method 3, respectively, as described in Example 1. Batch E was prepared analogously using according to Method 1 as described in Example 1.
Samples of TTI-101 (Batches B, C, D, and E) were stored at 40° C./75% RH for 3 months. The batches were individually stored in an low density polyethylene (LDPE) bag enclosed with a Nylon cable tie and then transferred to another LDPE bag and enclosed with a Nylon cable tie. The enclosure was put into a high density polyethylene (HDPE) bottle and closed with a polyethylene-lined polypropylene cap. For Batch B only, another sample was enclosed in a screw-top amber glass bottle and closed with a cap. The samples were stored under the above-identified conditions.

COc1ccc(S(=O)(=O)Nc2cc(-c3c(O)ccc4ccccc34)c(O)c3ccccc23)cc1 [Batch B (LDPE storage)]
Impurities Total, Area % (0 M): 0.2 Area % | Impurity RRT 0.39, Area % (0 M): 0.06 Area % | Impurity RRT 0.49, Area % (0 M): NQ (≥0.02% and <0.05%) | Impurity RRT 0.54, Area % (0 M): NQ (≥0.02% and <0.05%) | Impurity RRT 0.99, Area % (0 M): NQ (≥0.02% and <0.05%) | Impurity RRT 1.16 (Cmp 6), Area % (0 M): 0.12 Area % | Impurities Total, Area % (1 M): 0.1 Area % and 0.3 Area % | Impurity RRT 0.80, Area % (1 M): NQ (≥0.02% and <0.05%) | Impurity RRT 0.84, Area % (1 M): NQ (≥0.02% and <0.05%) | Impurity RRT 0.87, Area % (1 M): NQ (≥0.02% and <0.05%) | Impurity RRT 0.99, Area % (1 M): NQ (≥0.02% and <0.05%) | Impurity RRT 1.02, Area % (1 M): 0.05 Area % | Impurity RRT 1.05, Area % (1 M): NQ (≥0.02% and <0.05%) | Impurity RRT 1.06 (Cmp 4), Area % (1 M): NQ (≥0.02% and <0.05%) | Impurity RRT 1.17 (Cmp 6), Area % (1 M): 0.24 Area % | Impurity RRT 1.39, Area % (1 M): NQ (≥0.02% and <0.05%) | Impurities Total, Area % (2 M): 0.6 Area % | Impurity RRT 0.39, Area % (2 M): NQ (≥0.02% and <0.05%) | Impurity RRT 0.51, Area % (2 M): 0.06 Area % | Impurity RRT 0.80, Area % (2 M): NQ (≥0.02% and <0.05%) | Impurity RRT 0.84, Area % (2 M): NQ (≥0.02% and <0.05%) | Impurity RRT 0.87, Area % (2 M): NQ (≥0.02% and <0.05%) | Impurity RRT 0.99, Area % (2 M): NQ (≥0.02% and <0.05%) | Impurity RRT 1.02, Area % (2 M): 0.11 Area % | Impurity RRT 1.05, Area % (2 M): NQ (≥0.02% and <0.05%) | Impurity RRT 1.06 (Cmp 4), Area % (2 M): NQ (≥0.02% and <0.05%) | Impurity RRT 1.17 (Cmp 6), Area % (2 M): 0.32 Area % | Impurity RRT 1.39, Area % (2 M): 0.10 Area % and 0.1 Area % | Impurities Total, Area % (3 M): 3.2 Area % | Impurity RRT 0.40, Area % (3 M): NQ (≥0.02% and <0.05%) | Impurity RRT 0.85, Area % (3 M): NQ (≥0.02% and <0.05%) | Impurity RRT 0.88, Area % (3 M): NQ (≥0.02% and <0.05%) | Impurity RRT 0.98, Area % (3 M): NQ (≥0.02% and <0.05%) | Impurity RRT 1.02, Area % (3 M): 0.13 Area % | Impurity RRT 1.05, Area % (3 M): NQ (≥0.02% and <0.05%) | Impurity RRT 1.06 (Cmp 4), Area % (3 M): NQ (≥0.02% and <0.05%) | Impurity RRT 1.13, Area % (3 M): NQ (≥0.02% and <0.05%) | Impurity RRT 1.16 (Cmp 6), Area % (3 M): 2.9 Area % | Impurity RRT 1.38 (1.39), Area % (3 M): 0.16 Area % | Purity (%) (T = 0 month (0 M)): 99.8% and 99.6% | Purity (%) (T = 1 month (1 M)): 99.5% | Purity (%) (T = 2 months (2 M)): 99.2% | Purity (%) (T = 3 months (3 M)): 96.6%

COc1ccc(S(=O)(=O)Nc2cc(-c3c(O)ccc4ccccc34)c(O)c3ccccc23)cc1 [Batch B (glass storage)]
Impurities Total, Area % (0 M): 0.2 Area % | Impurity RRT 0.39, Area % (0 M): 0.06 Area % | Impurity RRT 0.49, Area % (0 M): NQ (≥0.02% and <0.05%) | Impurity RRT 0.54, Area % (0 M): NQ (≥0.02% and <0.05%) | Impurity RRT 0.99, Area % (0 M): NQ (≥0.02% and <0.05%) | Impurity RRT 1.16 (Cmp 6), Area % (0 M): 0.12 Area % | Impurities Total, Area % (1 M): 0.3 Area % | Impurity RRT 0.80, Area % (1 M): NQ (≥0.02% and <0.05%) | Impurity RRT 0.84, Area % (1 M): NQ (≥0.02% and <0.05%) | Impurity RRT 0.87, Area % (1 M): NQ (≥0.02% and <0.05%) | Impurity RRT 0.99, Area % (1 M): 0.05 Area % | Impurity RRT 1.02, Area % (1 M): 0.06 Area % | Impurity RRT 1.06 (Cmp 4), Area % (1 M): NQ (≥0.02% and <0.05%) | Impurity RRT 1.17 (Cmp 6), Area % (1 M): 0.23 Area % | Impurity RRT 1.39, Area % (1 M): NQ (≥0.02% and <0.05%) | Impurities Total, Area % (2 M): 0.4 Area % | Impurity RRT 0.39, Area % (2 M): NQ (≥0.02% and <0.05%) | Impurity RRT 0.80, Area % (2 M): NQ (≥0.02% and <0.05%) | Impurity RRT 0.84, Area % (2 M): NQ (≥0.02% and <0.05%) | Impurity RRT 0.87, Area % (2 M): NQ (≥0.02% and <0.05%) | Impurity RRT 0.99, Area % (2 M): NQ (≥0.02% and <0.05%) | Impurity RRT 1.02, Area % (2 M): 0.10 Area % | Impurity RRT 1.05, Area % (2 M): NQ (≥0.02% and <0.05%) | Impurity RRT 1.06 (Cmp 4), Area % (2 M): NQ (≥0.02% and <0.05%) | Impurity RRT 1.17 (Cmp 6), Area % (2 M): 0.323 Area % and 0.23 Area % | Impurity RRT 1.39, Area % (2 M): 0.09 Area % | Impurities Total, Area % (3 M): 2.9 Area % | Impurity RRT 0.40, Area % (3 M): NQ (≥0.02% and <0.05%) | Impurity RRT 0.85, Area % (3 M): NQ (≥0.02% and <0.05%) | Impurity RRT 0.88, Area % (3 M): NQ (≥0.02% and <0.05%) | Impurity RRT 0.98, Area % (3 M): NQ (≥0.02% and <0.05%) | Impurity RRT 1.02, Area % (3 M): 0.13 Area % | Impurity RRT 1.06 (Cmp 4), Area % (3 M): NQ (≥0.02% and <0.05%) | Impurity RRT 1.10, Area % (3 M): NQ (≥0.02% and <0.05%) | Impurity RRT 1.13, Area % (3 M): NQ (≥0.02% and <0.05%) | Impurity RRT 1.16 (Cmp 6), Area % (3 M): 2.6 Area % | Impurity RRT 1.38 (1.39), Area % (3 M): 0.14 Area % | Purity (%) (T = 0 month (0 M)): 99.8% and 99.6% | Purity (%) (T = 1 month (1 M)): 99.5% | Purity (%) (T = 2 months (2 M)): 99.4% | Purity (%) (T = 3 months (3 M)): 97.0%
